Results reported in patent EP0376166A1, “Condensed quinoline system compound and process of preparation thereof” (MECT CORPORATION, priority 1988, dated 1990).

Columns and labels:
[1] = test system: KB Cell; assay: Inhibition of multiplication (growth) of KB cells, in vitro; type: cell-based, human; details: concentration for 50% growth inhibition vs control; for IC50: Homo sapiens, 72 h, compound added Day 1, cells counted Day 4, read-out: Conc.(ED50)
Description: KB cells, carcinomatous cell tumors, were transferred to in vitro floatation incubator systems, and added respectively with compounds of Examples 1 to 33. The results of cultivation added with these compounds were compared with the results of the control which was not added with any compound.
Cell used: KB Cell (Originating from human mouth epidermal cancer) Culture medium: Eagles minimal essential medium (MEM) supplemented with 10% calf serum Cultivation: 37°C carbon dioxide gas incubator (5% CO₂)
Day 0: KB cells were diluted in the culture medium to adjust the KB cell density to 2 x 10⁴/ml. Three ml of the cell suspension was inoculated in each of 60 mm plastic dishes. Two dishes per standard dosage were used. Day 1: Test compound was added to the medium so that the final concentrations were set to 100, 30, 10, 3 and 1 µg/ml. Day 4: Cells were scraped off from the dish using trypsin, and the cell number was countered using a Corter counter.
In generally accordance with the stipulations set forth by the National Cancer Institute (NCI), U.S.A., the concentration of compound necessary for exerting 50% growth inhibition (ED₅₀) compared to the control was determined. A compound was judged as effective when ED₅₀ was less than 4 µg/ml.

[2] = test system: P-388; assay: Prolongation of life span in P-388 implanted mice; type: in vivo, CDF mouse; details: for cure: cured mice per group of 6; for response vs control in vivo at 3.12 mg/kg: dosage 3.12 mg/kg; for response vs control in vivo at 6.25 mg/kg: dosage 6.25 mg/kg
Description: Animal used: CDF mouse (6 mice/group) Tumor: P-388 Number of implanted cells: 10⁶ cells/mouse Implanted site: i.p. Day of administration: Day 1 and Day 5 Dosage: LD₅₀ or 400 mg/kg/day at the maximum

[3] = P388, ip, T/C %, dosage 50 mg/kg, Day 1 and Day 5, P-388 10⁶ cells/mouse i.p., read-out: Ratio of Life Prolongation (%)
[4] = P388, ip, T/C %, dosage 100 mg/kg, Day 1 and Day 5, P-388 10⁶ cells/mouse i.p., read-out: Ratio of Life Prolongation (%)
[5] = P388, ip, T/C %, dosage 200 mg/kg, Day 1 and Day 5, P-388 10⁶ cells/mouse i.p., read-out: Ratio of Life Prolongation (%)
[6] = P388, ip, T/C %, dosage 400 mg/kg, Day 1 and Day 5, P-388 10⁶ cells/mouse i.p., read-out: Ratio of Life Prolongation (%)
[7] = P388, ip, T/C %, dosage 12.5 mg/kg, Day 1 and Day 5, P-388 10⁶ cells/mouse i.p., read-out: Ratio of Life Prolongation (%)
[8] = P388, ip, T/C %, dosage 25 mg/kg, Day 1 and Day 5, P-388 10⁶ cells/mouse i.p., read-out: Ratio of Life Prolongation (%)
[9] = P388, ip, T/C %, Day 1 and Day 5, P-388 10⁶ cells/mouse i.p., read-out: Ratio of Life Prolongation (%)

Row | Molecule | IC50 [1] [µg/mL] | response vs control in vivo at 50 mg/kg [2, 3] [%] | response vs control in vivo at 100 mg/kg [2, 4] [%] | response vs control in vivo at 200 mg/kg [2, 5] [%] | response vs control in vivo at 400 mg/kg [2, 6] [%] | response vs control in vivo at 12.5 mg/kg [2, 7] [%] | response vs control in vivo at 25 mg/kg [2, 8] [%] | further results
1 | 6-(4-methanesulfonamide-anilino)-indeno[3,2-b]quinoline [Compound 5] | – | – | – | – | – | – | – | Conc.(ED50) ([1]; compound added Day 1, cells counted Day 4, 4320 min): < 0.3 µg/mL; Ratio of Life Prolongation (%) ([2]; T/C %, dosage 25 mg/kg, Day 1 and Day 5, P-388 10⁶ cells/mouse i.p.): 140%; Ratio of Life Prolongation (%) ([2]; T/C %, dosage 50 mg/kg, Day 1 and Day 5, P-388 10⁶ cells/mouse i.p.): 135%; Ratio of Life Prolongation (%) ([2]; T/C %, dosage 100 mg/kg, Day 1 and Day 5, P-388 10⁶ cells/mouse i.p.): 163%; Ratio of Life Prolongation (%) ([2]; T/C %, dosage 200 mg/kg, Day 1 and Day 5, P-388 10⁶ cells/mouse i.p.): 172%; Ratio of Life Prolongation (%) ([2]; T/C %, dosage 400 mg/kg, Day 1 and Day 5, P-388 10⁶ cells/mouse i.p.): 165%
2 | COc1cc(NS(C)(=O)=O)ccc1Nc1c2c(nc3c(C)cccc13)-c1c(C)cccc1C2 [Compound 1, 6-4-(methanesulfonamide-2-methoxyanilino)-1,10-dimethylindeno[3,2-b]quinoline] | < 0.3 | 210 | 290 | 240 | – | – | – | cure ([2]; dosage 100 mg/kg): 1/6; cure ([2]; dosage 200 mg/kg): 1/6
3 | COc1cc(NS(C)(=O)=O)ccc1Nc1c2c(nc3c(C)cccc13)-c1ccccc1C2 [Compound 2] | < 0.3 | – | 257 | 99 | 97 | – | – | cure ([2]; dosage 100 mg/kg): 1/6
4 | COC(=O)Nc1ccc(Nc2c3c(nc4ccccc24)-c2ccccc2C3)c(OC)c1 [Compound 3] | < 0.3 | – | 151 | 97 | 0 | – | – | –
5 | COc1cc(N)ccc1Nc1c2c(nc3ccccc13)-c1ccccc1C2 [Compound 4] | < 0.3 | 210 | – | – | – | 134 | 168 | –

More lines, main results first:

Row | IC50 [1] [µg/mL] | Molecule | response vs control in vivo at 50 mg/kg [2, 3] [%] | response vs control in vivo at 100 mg/kg [2, 4] [%] | response vs control in vivo at 200 mg/kg [2, 5] [%] | response vs control in vivo at 400 mg/kg [2, 6] [%] | response vs control in vivo at 12.5 mg/kg [2, 7] [%] | response vs control in vivo at 25 mg/kg [2, 8] [%] | further results
6 | < 0.3 | CN(C)c1cc(NS(C)(=O)=O)ccc1Nc1c2c(nc3ccccc13)-c1ccccc1C2 [Compound 6, 6-(4-methanesulfonamide-2-dimethylaminoanilino)-indeno[3,2-b]quinoline] | – | 169 | 247 | 148 | – | – | cure ([2]; dosage 200 mg/kg): 2/6
7 | < 0.3 | COc1cc(NCS(=O)O)ccc1Nc1c2c(nc3ccccc13)-c1ccccc1C2 [Compound 7] | 111 | 108 | 111 | – | – | – | –
8 | < 0.3 | COc1cc(NCC(=O)O)ccc1Nc1c2c(nc3ccccc13)-c1ccccc1C2 [Compound 8] | – | 175 | 178 | 155 | – | – | –
9 | < 0.3 | COc1cc(NS(C)(=O)=O)ccc1Nc1c2cccc(C)c2nc2c1[nH]c1ccccc12 [Compound 9] | 305 | – | – | – | 198 | 235 | response vs control in vivo at 1.56 mg/kg ([2]; P388, ip, T/C %, dosage 1.56 mg/kg, Day 1 and Day 5, P-388 10⁶ cells/mouse i.p., read-out: Ratio of Life Prolongation (%)): 131%; response vs control in vivo at 3.12 mg/kg [2, 9]: 165%; response vs control in vivo at 6.25 mg/kg [2, 9]: 168%; cure ([2]; dosage 25 mg/kg): 1/6; cure ([2]; dosage 50 mg/kg): 4/6
10 | < 0.3 | COc1cc(NS(C)(=O)=O)ccc1Nc1c2cccc(C)c2nc2c1[nH]c1cccc(C)c12 [Compound 10, 6-(4-methanesulfonamide-2-methoxyanilino)-1,10-dimethylindolo[3,2-b]quinoline] | 223 | 260 | – | – | 165 | 203 | response vs control in vivo at 3.12 mg/kg [2, 9]: 109%; response vs control in vivo at 6.25 mg/kg [2, 9]: 145%; cure ([2]; dosage 100 mg/kg): 1/6
11 | < 0.3 | COc1cc(NS(C)(=O)=O)ccc1Nc1c2cccc(C)c2nc2c1[nH]c1cc(C)ccc12 [Compound 11, 6-(4-methanesulfonamide-2-methoxyanilino)-3,10-dimethylindolo[3,2-b]quinoline] | 315 | – | – | – | 315 | 294 | cure ([2]; dosage 12.5 mg/kg): 1/6; cure ([2]; dosage 25 mg/kg): 2/6; cure ([2]; dosage 50 mg/kg): 1/6
